This passage reports logP results from patent US9161981B2 (LG LIFE SCIENCES, LTD., priority 2010, dated 2015).

In general, logP refers to a log measure of how a compound divides between an organic and an aqueous phase.

The conditions of the series: phenol between MCT oil phase and saline phase; oil and saline 19:1; HPLC.

Text: The partition coefficient P is a value calculated by dividing a concentration of preservative in the oil phase by a concentration of preservative in the water phase.

Consider `Oc1ccccc1` [phenol], for which the logP was 1.1.
